Measurements reported in ChEMBL document CHEMBL4613208, “Isatin derivatives and their anti-bacterial activities” (Eur J Med Chem, 2019).
In brackets after ≈: the same amount, converted by molar mass.

What was measured:
Escherichia coli [1] = test: Antibacterial activity against Escherichia coli assessed as zone of inhibition at 20 mg/ml; type: functional; details: read-out: IZ
Staphylococcus aureus [2] = test: Antibacterial activity against Staphylococcus aureus assessed as zone of inhibition at 20 mg/ml; type: functional; details: read-out: IZ
Pseudomonas aeruginosa [3] = test: Antibacterial activity against Pseudomonas aeruginosa assessed as zone of inhibition at 20 mg/ml; type: functional; details: read-out: IZ
Bacillus subtilis [4] = test: Antibacterial activity against Bacillus subtilis assessed as zone of inhibition at 20 mg/ml; type: functional; details: read-out: IZ
Pseudomonas aeruginosa [5] = test: Antibacterial activity against Pseudomonas aeruginosa after 24 hrs by paper disc diffusion technique; type: functional; details: Pseudomonas aeruginosa, 24 h; read-out: MIC
Staphylococcus aureus [6] = test: Antibacterial activity against Staphylococcus aureus after 24 hrs by paper disc diffusion technique; type: functional; details: Staphylococcus aureus, 24 h; read-out: MIC
Escherichia coli [7] = test: Antibacterial activity against Escherichia coli after 24 hrs by paper disc diffusion technique; type: functional; details: Escherichia coli, 24 h; read-out: MIC
Klebsiella pneumoniae = test: Antibacterial activity against Klebsiella pneumoniae after 24 hrs by paper disc diffusion technique; type: functional; details: Klebsiella pneumoniae, 24 h; read-out: MIC
Micrococcus luteus = test: Antibacterial activity against Micrococcus luteus after 24 hrs by paper disc diffusion technique; type: functional; details: Micrococcus luteus, 24 h; read-out: MIC
[8] = system: Staphylococcus epidermidis; test: Antibacterial activity against Staphylococcus epidermidis after 24 hrs by paper disc diffusion technique; type: functional; details: Staphylococcus epidermidis, 24 h; read-out: MIC
Staphylococcus aureus [9] = test: Antibacterial activity against Staphylococcus aureus; type: functional, organism-based
Escherichia coli [10] = test: Antibacterial activity against Escherichia coli; type: functional, organism-based
Pseudomonas aeruginosa [11] = test: Antibacterial activity against Pseudomonas aeruginosa; type: functional, organism-based
Bacillus subtilis [12] = test: Antibacterial activity against Bacillus subtilis by two-fold serial dilution technique; type: functional
Escherichia coli [13] = test: Antibacterial activity against Escherichia coli by two-fold serial dilution technique; type: functional
Pseudomonas aeruginosa [14] = test: Antibacterial activity against Pseudomonas aeruginosa by two-fold serial dilution technique; type: functional
Staphylococcus aureus [15] = test: Antibacterial activity against Staphylococcus aureus by two-fold serial dilution technique; type: functional

Structure (SMILES) | zone of inhibition at 20000 µg/mL (Escherichia coli [1]) [mm] | zone of inhibition at 20000 µg/mL (Staphylococcus aureus [2]) [mm] | zone of inhibition at 20000 µg/mL (Pseudomonas aeruginosa [3]) [mm] | zone of inhibition at 20000 µg/mL (Bacillus subtilis [4]) [mm] | MIC (Bacillus subtilis [12]) [µg/mL] | MIC (Escherichia coli [13]) [µg/mL] | MIC (Pseudomonas aeruginosa [14]) [µg/mL] | MIC (Staphylococcus aureus [15]) [µg/mL] | also measured
COC(=O)c1c(NC(C)(C)C)oc(N(C(=O)CN2C(=O)/C(=C3/C(=O)N(CC(=O)N(c4oc(NC(C)(C)C)c(C(=O)OC(C)(C)C)c4C(=O)OC(C)(C)C)C(C)(C)C)c4ccccc43)SC2=S)C(C)(C)C)c1C(=O)OC | 15.6 to 26 | 15.6 to 26 | 15.6 to 26 | 15.6 to 26 |  |  |  |  | 
COc1cc(/C=N/c2ccc(/N=C3/C(=O)N(CN4CCN(c5cc6c(cc5F)c(=O)c(C(=O)O)cn6C5CC5)CC4)c4ccc(F)cc43)cc2)cc(OC)c1OC |  |  |  |  |  |  |  |  | MIC (Pseudomonas aeruginosa [5]): 7.81 to 125 µg/mL (≈ 10.1 to 161 µM); MIC (Staphylococcus aureus [6]): 7.81 to 125 µg/mL (≈ 10.1 to 161 µM); MIC (Escherichia coli [7]): 7.81 to 125 µg/mL (≈ 10.1 to 161 µM); MIC (Klebsiella pneumoniae): 7.81 to 125 µg/mL (≈ 10.1 to 161 µM); MIC (Micrococcus luteus): 7.81 to 125 µg/mL (≈ 10.1 to 161 µM); MIC [8]: 7.81 to 125 µg/mL (≈ 10.1 to 161 µM)
Cc1c(C)c2c(c(C)c1O)CCC(C)(C(=O)N/N=C1\C(=O)Nc3cc(Cl)ccc31)O2 (centres undefined) |  |  |  |  |  |  |  |  | MIC (Staphylococcus aureus [9]): 12.5 to 100 µg/mL (≈ 29.2 to 234 µM); MIC (Escherichia coli [10]): 12.5 to 100 µg/mL (≈ 29.2 to 234 µM); MIC (Pseudomonas aeruginosa [11]): 12.5 to 100 µg/mL (≈ 29.2 to 234 µM)
Cc1ccc2c(c1)/C(=N/NC(=O)N/N=C1\C(=O)N(Cc3ccccc3)c3ccc(C)cc31)C(=O)N2Cc1ccccc1 |  |  |  |  | 6.25 to 100 (≈ 11.2 to 180 µM) | 6.25 to 100 (≈ 11.2 to 180 µM) | 6.25 to 100 (≈ 11.2 to 180 µM) | 6.25 to 100 (≈ 11.2 to 180 µM) | 
O=C(O)c1cn(C2CC2)c2cc(N3CCN(CN4C(=O)/C(=N/c5ccc(/N=C/c6ccccc6O)cc5)c5cc(F)ccc54)CC3)c(F)cc2c1=O |  |  |  |  |  |  |  |  | MIC (Pseudomonas aeruginosa [5]): 7.81 to 125 µg/mL (≈ 11.1 to 178 µM); MIC (Staphylococcus aureus [6]): 7.81 to 125 µg/mL (≈ 11.1 to 178 µM); MIC (Escherichia coli [7]): 7.81 to 125 µg/mL (≈ 11.1 to 178 µM); MIC (Klebsiella pneumoniae): 7.81 to 125 µg/mL (≈ 11.1 to 178 µM); MIC (Micrococcus luteus): 7.81 to 125 µg/mL (≈ 11.1 to 178 µM); MIC [8]: 7.81 to 125 µg/mL (≈ 11.1 to 178 µM)
O=C(N/N=C1\C(=O)Nc2ccc(F)cc21)N/N=C1\C(=O)Nc2ccc(F)cc21 |  |  |  |  | 6.25 to 100 (≈ 16.3 to 260 µM) | 6.25 to 100 (≈ 16.3 to 260 µM) | 6.25 to 100 (≈ 16.3 to 260 µM) | 6.25 to 100 (≈ 16.3 to 260 µM) | 
CCOC(=O)c1c(NC(C)(C)C)oc(N(C(=O)CN2C(=O)/C(=C3/C(=O)N(CO)c4ccccc43)SC2=S)C(C)(C)C)c1C(=O)OCC | 15.6 to 26 | 15.6 to 26 | 15.6 to 26 | 15.6 to 26 |  |  |  |  | 
O=C(N/N=C1\C(=O)N(Cc2ccccc2)c2ccccc21)N/N=C1\C(=O)N(Cc2ccccc2)c2ccccc21 |  |  |  |  | 6.25 to 100 (≈ 11.8 to 189 µM) | 6.25 to 100 (≈ 11.8 to 189 µM) | 6.25 to 100 (≈ 11.8 to 189 µM) | 6.25 to 100 (≈ 11.8 to 189 µM) | 
CCOC(=O)CN1C(=O)/C(=C2\SC(=S)N(CC(=O)N(c3oc(NC(C)(C)C)c(C(=O)OCC)c3C(=O)OCC)C(C)(C)C)C2=O)c2ccccc21 | 15.6 to 26 | 15.6 to 26 | 15.6 to 26 | 15.6 to 26 |  |  |  |  | 
